Laboratory results published in patent publication US20040048842A1, “Method of treating skin disorders” (priority 2002, published 2004).
Values joined by “and” are separate entries in the source; they are usually repeats but may differ in a detail not shown here. Equal values may be shown once.

experiment: Absorption peaks of photosensitizers; format: physicochemical; conditions: relevant absorption peaks, Table 1
Excerpt: FIG. 1 is a graph showing the absorption bands of protoporphyrin IX, which is produced as a result of 5-aminolevulinic acid metabolism in a mammal. Protoporphyrin IX has an absorption band located in the blue spectral region (the 410 nanometer Soret band) and other weaker absorption bands in the 500 to 650 nanometer visible region, namely at about 506 nanometers, 546 nanometers, and 578 nanometers. […] Table 1 lists several photosensitizers useful in the practice of the invention, and identifies relevant absorption peaks for each of the listed photosensitizers. While the 460 nanometer to 620 nanometer wavelength range includes the relatively strong absorption peaks of oxyhemoglobin and deoxyhemoglobin, these blood components have other absorption peaks (although of lower relative maxima) at longer wavelengths. For example, deoxyhemoglobin has a weaker absorption peak at about 757 nanometers, and oxyhemoglobin has a weaker absorption peak at about 920 nanometers. Pulsed light sources in the red and near infrared (up to approximately 940 nanometers), for example, the flash lamp pumped alexandrite laser (755 nanometer), or semiconductor diode lasers, for example, gallium arsenide laser (810 nanometer) are capable of selective photothermolysis of blood vessels, including the microvessels in psoriatic lesions. Accordingly, under certain circumstances, it may be advantageous to use a source of pulsed or scanned irradiation having a wavelength in the range from about 640 nanometers to about 940 nanometers to perform combined selective photothermolysis of blood vessels and photodynamic therapy (using the appropriate photosensitizer) in the target region. Useful photosensitizers that absorb light in this spectral region include, for example, Pd(II)-octabutoxyphthalocyanine (732 nm, 838 nm), Si(IV)-napthalocyanine (773 nm)(Jori (1996) J. PHOTOCHEM. PHOTOBIOL. B 87-93), and 5,15-etiobacteriopurpurin (768 nm, 843 nm) (U.S. Pat. No. 6,376,483 B1).

Row | Molecule | Wavelength of absorption peaks
1 | benzoporphyrin derivative mono-acid | ˜585 nm
2 | O=C([O-])c1c(Cl)c(Cl)c(Cl)c(Cl)c1-c1c2cc(I)c(=O)c(I)c-2oc2c(I)c([O-])c(I)cc12.[Na+].[Na+] [rose bengal] | 548 nm
3 | nickel 5,10-bis-acrylate etioporphyrin I | 580 nm

experiment: not given; conditions: spectral region about 640 to about 940 nanometers; cited from earlier work

Row | Molecule | wavelength of light absorbed
4 | Pd(II)-octabutoxyphthalocyanine | 732 nm and 838 nm
5 | Si(IV)-napthalocyanine | 773 nm
6 | 5,15-etiobacteriopurpurin | 768 nm and 843 nm
